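Test compounds were applied to cells in 96-well plates for 48 hours at 5 doses. At the TGI there is no net growth.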
Key:
Test in all cases: inhibition of tumour cell growth, NCI panel, 48 h
[1] = system: XF 498 CNS
[2] = system: UACC-257 melanoma
[3] = system: ACHN renal
[4] = system: SK-MEL-2 melanoma
[5] = system: HT29 colon
[6] = system: TK-10 renal
[7] = system: UACC-62 melanoma
[8] = system: OVCAR-8 ovarian
[9] = system: IGROV1 ovarian
[10] = system: SF-268 CNS
[11] = system: SW-620 colon
[12] = system: SN12C renal
[13] = system: NCI-H522 lung
[14] = system: NCI-H460 lung
[15] = system: OVCAR-3 ovarian
[16] = system: HL-60(TB) leukemia
[17] = system: LXFL 529 NSCLC
[18] = system: OVCAR-5 ovarian
[19] = system: KM12 colon
[20] = system: NCI-H23 lung
[21] = system: SK-MEL-5 melanoma
[22] = system: 786-0 renal
[23] = system: NCI-H226 lung
[24] = system: EKVX NSCLC
[25] = system: RXF-631 renal
[26] = system: MOLT-4 leukemia
[27] = system: HOP-18 NSCLC
[28] = system: UO-31 renal
[29] = system: CAKI-1 renal
[30] = system: M19-MEL melanoma
[31] = system: HOP-62 NSCLC
[32] = system: KM20L2 colon
[33] = system: HCC-2998 colon
[34] = system: MALME-3M melanoma
[35] = system: CCRF-CEM leukemia
[36] = system: SNB-19 CNS
[37] = system: LOX IMVI melanoma
[38] = system: DMS 273 small cell lung
[39] = system: RPMI-8226 leukemia
[40] = system: K-562 leukemia
[41] = system: HCT-15 colon
[42] = system: OVCAR-4 ovarian
[43] = system: A549 NSCLC
[44] = system: SF-539 CNS
[45] = system: DLD-1 colon
[46] = system: COLO 205 colon
[47] = system: SK-OV-3 ovarian
[48] = system: A498 renal
[49] = system: SK-MEL-28 melanoma
[50] = system: M14 melanoma
[51] = system: SF-295 CNS
[52] = system: RXF 393 renal
[53] = system: SNB-75 CNS
[54] = system: SR leukemia
[55] = system: SNB-78 CNS
[56] = system: DMS 114 small cell lung
[57] = system: U251 CNS
[58] = system: HCT-116 colon

Measured: TGI

C/C(CCn1[nH]c(=O)ccc1=O)=N\NC(=O)C(=O)NN
not listed: [53] | [54] | [55] | [56] | [57] | [58]
> 100 µM: all other assays above

Cc1cc2c(C)[nH]nc2c(C(=O)O)c1C
not listed: [6] | [10] | [13] | [18] | [21] | [23] | [25] | [27] | [34] | [37] | [47] | [50]
> 100 µM: all other assays above

From PubChem BioAssay (NCI)
